This is an account of results in patent US12059409B1, “Pharmaceutical composition for modified release” (ASTELLAS PHARMA INC., priority 2008, dated 2024).

The nature of the series: Clinical trial of compound A in conventional formulations (not published). As to conditions: human, in vivo; read-out: elimination half-life (T1/2). The text has this:
These problems are considered to be raised by, for example, the changes in pharmacokinetics caused by food, and therefore, the development of a formulation capable of avoiding the effects by food intake is desired.
Taking into consideration the results of the clinical trial described above, the present inventors conducted intensive studies to design the formulation by paying attention to the control of a release rate of the drug from a formulation to the extent that the release is not affected by food intake or the like, rather than the addition of release control.
On the basis of blood concentration profiles (in a fasted state/after the intake of food) after administration of a conventional formulation (rapid release formulation), the absorption rate of the drug in a fed state was calculated by a deconvolution method to predict continuous absorption for about 4 hours.

In the case of `Nc1nc(CC(=O)Nc2ccc(CCNC[C@H](O)c3ccccc3)cc2)cs1` [compound A, (R)-2-(2-aminothiazol-4-yl)-4′-[2-[(2-hydroxy-2-phenylethyl)amino]ethyl]acetic acid anilide], the half-life was in the range of 18 to 24 h.
